Reference: US9073918B2, “Pyrazolo[4,3-b]pyridine-7-amine inhibitors of ALK5” (Takeda Pharmaceutical Company Limited, priority 2010, dated 2015)
Where a name gives a salt, the structure may show the parent alone.

Legend:
cellular TGF-β R1 ALK5 = target: T1, cellular TGF-β R1 ALK5 (Homo sapiens, UniProt P36897); assay: Cellular inhibition of ALK5 (CellSensor SBE-bla HEK 293T beta-lactamase reporter); type: cell-based; settings: cellular inhibition of ALK5, SBE-bla HEK 293T cells, TGFb-1 stimulated 5 hours; average where measured in multiple experiments
T1 construct: host or cells: CellSensor SBE-bla HEK 293T
T1 sequence (P36897 34-503): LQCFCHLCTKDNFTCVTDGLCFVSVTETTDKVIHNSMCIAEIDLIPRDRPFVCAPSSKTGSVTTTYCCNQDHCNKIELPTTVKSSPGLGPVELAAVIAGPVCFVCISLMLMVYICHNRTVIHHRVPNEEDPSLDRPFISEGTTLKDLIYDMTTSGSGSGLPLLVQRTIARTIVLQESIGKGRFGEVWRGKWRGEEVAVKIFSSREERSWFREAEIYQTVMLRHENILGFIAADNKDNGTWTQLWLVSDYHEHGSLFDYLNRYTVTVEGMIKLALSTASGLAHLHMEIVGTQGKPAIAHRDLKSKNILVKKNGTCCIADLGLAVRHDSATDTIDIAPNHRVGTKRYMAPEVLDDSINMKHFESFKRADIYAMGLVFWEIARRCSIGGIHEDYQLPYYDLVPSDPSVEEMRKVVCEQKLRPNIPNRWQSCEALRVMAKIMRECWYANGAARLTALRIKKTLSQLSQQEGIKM
Procedure, shortened: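 SBE-bla HEK 293T beta-lactamase reporter cells pre-incubated 1 h at 37 °C with 2.5-fold serially diluted compounds (0.5% DMSO), then stimulated 5 h with TGFb-1 (100 ng/mL stock).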

TGF-β R1 ALK5 = target: T2, TGF-β R1 ALK5 (Homo sapiens, UniProt P36897); assay: In vitro inhibition of ALK5 (LanthaScreen activity assay, TR-FRET); type: biochemical
T2 construct: purchased Invitrogen PV5837
T2 sequence (P36897 34-503): T1 sequence (P36897 34-503)

| Compound | melting point [°C] | IC50 (cellular TGF-β R1 ALK5) [nM] | IC50 (TGF-β R1 ALK5) [nM] |
| --- | --- | --- | --- |
| Cc1ccc(F)c(-c2cc(Nc3ccnc4cn(C)nc34)c(C)cn2)n1 [Example 123, N-(3′-fluoro-5,6′-dimethyl-2,2′-bipyridin-4-yl)-2-methyl-2H-pyrazolo[4,3-b]pyridin-7-amine] | 102.9 to 103 | 79.4 | 25.1 |
| Cc1ccc(F)c(-c2cc(Nc3ccnc4cnn(CC(C)(C)O)c34)ccn2)n1 (as salt: TFA) [Example 70, 1-(7-(3′-fluoro-6′-methyl-2,2′-bipyridin-4-ylamino)-1H-pyrazolo[4,3-b]pyridin-1-yl)-2-methylpropan-2-ol] | 135 to 136 |  |  |
| CNC(=O)n1ncc2nccc(Nc3cc(-c4cc(Cl)ccc4F)ncc3C)c21 (as salt: TFA) [Example 52, 7-(2-(5-chloro-2-fluorophenyl)-5-methylpyridin-4-ylamino)-N-methyl-1H-pyrazolo[4,3-b]pyridine-1-carboxamide] | 135 |  |  |
| CNC(=O)n1ncc2nccc(Nc3cc(C)nc(-c4cc(Cl)ccc4F)c3)c21 (as salt: TFA) [Example 58, 7-(2-(5-chloro-2-fluorophenyl)-6-methylpyridin-4-ylamino)-N-methyl-1H-pyrazolo[4,3-b]pyridine-1-carboxamide] | 248 |  |  |
